Reference: patent US12410358B2, “Organic acid-based enhanced waterflooding” (UNIVERSITY OF WYOMING, priority 2018, dated 2025)

Experiments:
[1] = Interfacial shear viscoelasticity, double-wall ring rheometer; format: physicochemical; settings: for tan (δ) / Fractional G′ / Fractional G″: 1 mM acid in 1% Na2SO4 brine, 25° C.; for tan (δ): compared to the brine; for Fractional G′ / Fractional G″: compared to the brine viscoelastic moduli
Experimental: Rheological experiments were conducted with the GB oil and a low-salinity brine (1% Na2SO4) spiked with low concentration of organic acids using a TA Instruments AR-G2 Rheometer with a double-wall ring geometry. Measurement of the oil-water interface was performed using the rheometer, as the ring of the rheometer was placed directly on the denser phase, with the second phase added carefully at the end. The shear viscoelasticities were recorded at 25° C. Measurements were run in oscillatory time-sweep mode to measure the shear viscoelastic moduli, as the oscillatory time-sweep mode has high sensitivity to measure low frequency and torque values.
The stress response of the oil-water interface can be calculated utilizing Equation 1: σ(t)=γo[G′(ω)sin(ωt)+G″(ω)cos(ωt)] where σ represents the shear stress, t represents the time, γo is the amplitude of the strain, G′(ω) is the elastic or real modulus, and G″(ω) is the viscous or imaginary modulus. The elastic modulus is the instantaneous response to stress and the viscous modulus is the delayed response quantified by a phase angle. The tangent of this angle is represented by the following equation: […]
Experiments were run in the linear viscoelastic region, determined with a strain sweep test at fixed frequency on individual samples to determine appropriate values for each parameter in the following experiments.
The rheometer was cleaned with toluene and methanol and then air-dried; the Pt/Ir ring of the rheometer was flamed to remove residual contaminants and salts before each experiment. The rheometer was positioned on an air-table and was calibrated for geometry, inertia, and friction before each experiment was prepared. The brine was filtered through a 0.45 μm SFCA filter and examined for bubbles before the ring was lowered to sit at the interface. Next, the oil was added on top of the brine in a manner selected to avoid disruption of the interface formed. Without moving the table, the setup was covered and allowed to run for a minimum of five days. The viscoelasticity was measured several times during the first day and then routinely once a day for the remainder of the experiment duration. The temperature was controlled with the Peltier plate beneath the sample holder. When cleaning the rheometer at the end of the experiment, care was taken to recover as much aqueous phase as possible for NMR and pH measurements.
The interfacial viscoelasticity measurements were conducted on samples having a ratio of two parts aqueous phase to one part oil phase. […]

[2] = Emulsion stability by TD-NMR droplet-size distribution; format: physicochemical; settings: for Δd3 day 5 / Δσ day 5 / Δd3 day 14 / Δσ day 14: 1 mM acid in 1% Na2SO4, 1:1 with GB oil; for Δd3 day 5 / Δσ day 5: change days 1-5; for Δd3 day 14 / Δσ day 14: change days 1-14; for effect on emulsion stability compared to 1% Na2SO4 brine: 1 mM acid, day 14
Experimental: Dispersions were prepared in a 1:1 volume ratio with GB oil to each acid (1 mM) in the 1% Na2SO4 brine. The dispersions were emulsified via […] at 6500 rpm for 30 seconds in an Ultra Turrax T25 basic (IKA-Werke) homogenizer. The emulsions were then homogenized for 3 minutes at 6500 rpm to obtain homogeneous droplets for characterization.
Water-in-oil emulsions were prepared for each acid and the time evolution was tracked on a Bruker Biospin Minispec mq20 time domain nuclear magnetic resonance (TD-NMR). This instrument provides information about the polydispersity (σ) of the system and the diameter size (di). The variable i can represent either the diameter in terms of the number of droplets (1=0) or the diameter in terms of average volume of the droplets (1=3). The unimodal droplet size distribution for the created emulsions can be calculated according to Equation 2:
[formula] where qi is the log-normal distribution, d50,i is the geometric mean diameter. Bruker software is used for the NMR and that calculated the droplet size distribution. The change in diameter in relation to the volume is useful because it is indicative of coalescence.
This technique is advantageous as it is non-invasive and independent of the opacity of the dispersion. […] Droplet coalescence and emulsion stability was inferred by tracking the droplet-size distribution density over time.
The influence of the specific acids on coalescence was evaluated with restricted diffusion in a time-domain nuclear magnetic resonance (TD-NMR) system. […] Measurements were recorded within the first hour after emulsification, and every day for days 1-5, and then on days 7, 10, and 14. The TD-NMR system calculates a median diameter, which relates to the number of droplets present (d0) and the volume of the droplets present (d3). […] The Bruker system software also provides a standard deviation, σ, which is applicable for both diameter values and relates to the polydispersity of the droplets in solution.

[3] = Oil bridge neck diameter / snap-off experiment; settings: 1 mM acid in 1% Na2SO4, GB oil bridge; for delay of snap-off / bridge failure compared to low-salinity brine: 1 hour aging
From the text: A bridge technique was executed on a modified First Ten Angstroms (FTA) 1000 pendant drop instrument using two opposing vertical needles. The slenderness ratio (A) is defined as the length of the bridge (L) divided by the diameter of the needle (D). A large slenderness ratio is associated with an unstable bridge. The bridge goes through at least two processes. First the oil is bridged between the opposing needles, suspended in the brine and aged up to one hour. While the bridge is aging, the interfacial elasticity increases and the interfacial tension decreases. There are no disruptions or deformation of the system, and thus the surface stress is equal to the interfacial tension. After aging, the bridge goes under the second process during which the oil comprising the bridge is removed at 0.1 μL/s. This response is tracked until bridge failure. During this process, due to the increase in the elasticity of the interface, an extensional longitudinal and compressive circumferential surface stress contribute to the process. The behavior of the oil when the bridge breaks is indicative of the dominant environment of the oil-water interface—e.g., whether the environment is characteristic of an elastic break or an inelastic break. An enhanced elastic break, resulting from the formation of a thick interface, can appear as pointy interface and can show very little recovery of its initial shape, while a viscous break can reform the initial appearance of the oil before the formation of the bridge as shown in FIGS. 8A-8C. FIG. 8A is an image of the bridge initially before any aging or oil removal. FIG. 8B is an image showing the behavior observed in an inelastic break, and FIG. 8C is an image showing the behavior observed in an elastic break. Increased viscoelasticity suppresses interfacial snap-off and helps to sustain a more continuous oil phase. An elastic bridge is much less prone to break and therefore can pull more volumes of oil out (more production).
The behavior of the bridge is monitored with an APPRO camera at a frame rate of 60 frames per second and its geometry is tracked by measuring the neck diameter (ND). The neck diameter is the lowest radius along the vertical axis. The critical neck diameter (CND) is the value corresponding to the last frame of the connected bridge. The ratio of CND/ND is a stability proxy, and assumptions are made that a value close to zero indicates prevalent elastic forces.

[4] = Solubility of acids in brine; format: physicochemical; settings: no pH adjustment
Experimental: A 1% Na2SO4 brine, equivalent to 2.24 mM (low salinity) and an ionic strength of 6.7 mM, was prepared and vacuumed for two hours before use. The brine was selected because it served as the baseline aqueous phase for the coreflooding experiments. Brine aliquots were then mixed with each of the 18 acid solutions at various concentrations and mixed into solution for several days. […] No adjustments were made to the brine to bring the acids into solution; at higher brine pH, larger naphthenic acids (NAs) solubilize more readily, while smaller ones can often dissolve at neutral pH. At higher pH, the potential for micelle and reverse micelle formation increases. However, embodiments described herein relate to acids that partition naturally, rather than those coaxed from the oil phase, so pH adjustments were not made in order to examine the influence of the acids in the system.
Additionally, the naphthenic acid mixture (NAmix1) was analyzed.

Structure (SMILES) | tan (δ) ([1]; GB oil) [%] | Fractional G′ ([1]; GB oil) | Fractional G″ ([1]; GB oil) [%] | Δd3 day 5 [2] | Δσ day 5 [2] | Δd3 day 14 [2] | Δσ day 14 [2] | effect on emulsion stability compared to 1% Na2SO4 brine [2] | aging time after which skin was observed [3] [h] | bridge break behaviour (elastic / inelastic) [3] | delay of snap-off / bridge failure compared to low-salinity brine [3] | G′ value (elastic modulus) ([1]; 1 mM acid, day 5, GB oil) | G″ value (viscous modulus) ([1]; 1 mM acid, day 5, GB oil) | interface relative to un-acidified brine values ([1]; 10 mM acid, day 5, GB oil) [%] | concentration at which G′ and G″ plateau (acid believed to form aggregates) ([1]; GB oil, 1% Na2SO4 brine) | solubility in 1% Na2SO4 brine [4] | aging time after which solid-like film (skin) was visible [3]
O=C(O)[C@@H]1CCCN1 [L-Proline, L-proline] | 114 | 53% | 47 | 1.045 | 0.1325 | 1.115 | 0.1722 | stabilize the emulsions | – | – | – | – | – | – | – | – | –
Cc1ccc(C(=O)O)cc1 [NA12, p-toluic acid] | 189 | 25.8%^ | 48.8 | 1.315 | 0.1998 | 1.6025 | 0.3463 | does not encourage coalescence | – | – | – | – | – | – | – | – | –
O=C(O)C1CCCC1 [NA14, cyclopentane carboxylic acid] | 90.6 | 151% | 137 | 1.3475 | 1.3475 | 1.4425 | 0.259 | stabilize the emulsions | ~12 | more elastic break | delays snap-off | – | – | – | – | – | –
O=C(O)C1CCCCC1 [NA18, cyclohexane carboxylic acid] | 127 | 42% | 53.5 | 1.5395 | 0.1263 | 1.572 | 0.2238 | stabilize the emulsions | – | asymmetric elastic skin | delayed bridge failure the longest | about 100 mPa | about 35 mPa | 21.2 | above 2.5 mM | especially soluble at higher concentrations | about 10 minutes
